Experimental data reported in article PMC4068829 (Journal of medicinal chemistry, 2013).
Where two headings read alike, the source gives them in different places.

Legend:
MATE1 [1] = target: T1, MATE1 (Homo sapiens, UniProt Q96FL8); test: in vitro; settings: HEK cells stably overexpressing MATE1, pH 7.4
T1 sequence (Q96FL8 1-570): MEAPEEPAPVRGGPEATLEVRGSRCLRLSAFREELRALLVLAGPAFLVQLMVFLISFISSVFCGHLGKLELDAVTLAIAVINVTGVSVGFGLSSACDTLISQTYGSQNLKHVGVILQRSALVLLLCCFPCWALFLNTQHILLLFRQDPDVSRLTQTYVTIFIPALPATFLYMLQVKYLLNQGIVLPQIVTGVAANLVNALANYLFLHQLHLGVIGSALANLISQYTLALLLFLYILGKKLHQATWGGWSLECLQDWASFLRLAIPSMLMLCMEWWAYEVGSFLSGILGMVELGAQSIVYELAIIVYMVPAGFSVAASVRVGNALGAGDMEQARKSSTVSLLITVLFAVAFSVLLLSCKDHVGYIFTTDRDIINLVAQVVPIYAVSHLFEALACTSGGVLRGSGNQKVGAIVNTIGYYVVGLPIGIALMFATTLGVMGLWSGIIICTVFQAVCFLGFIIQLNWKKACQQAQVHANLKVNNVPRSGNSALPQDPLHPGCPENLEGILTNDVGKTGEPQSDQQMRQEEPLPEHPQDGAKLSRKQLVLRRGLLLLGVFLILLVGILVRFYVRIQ

human MATE2-K = human MATE2-K (Homo sapiens, UniProt Q86VL8); assay type: cell-based; settings: for did not inhibit MATE2-K up to: highest concentration without inhibition, data not shown
Sequence of human MATE2-K (Q86VL8 1-566 isoform Q86VL8-3): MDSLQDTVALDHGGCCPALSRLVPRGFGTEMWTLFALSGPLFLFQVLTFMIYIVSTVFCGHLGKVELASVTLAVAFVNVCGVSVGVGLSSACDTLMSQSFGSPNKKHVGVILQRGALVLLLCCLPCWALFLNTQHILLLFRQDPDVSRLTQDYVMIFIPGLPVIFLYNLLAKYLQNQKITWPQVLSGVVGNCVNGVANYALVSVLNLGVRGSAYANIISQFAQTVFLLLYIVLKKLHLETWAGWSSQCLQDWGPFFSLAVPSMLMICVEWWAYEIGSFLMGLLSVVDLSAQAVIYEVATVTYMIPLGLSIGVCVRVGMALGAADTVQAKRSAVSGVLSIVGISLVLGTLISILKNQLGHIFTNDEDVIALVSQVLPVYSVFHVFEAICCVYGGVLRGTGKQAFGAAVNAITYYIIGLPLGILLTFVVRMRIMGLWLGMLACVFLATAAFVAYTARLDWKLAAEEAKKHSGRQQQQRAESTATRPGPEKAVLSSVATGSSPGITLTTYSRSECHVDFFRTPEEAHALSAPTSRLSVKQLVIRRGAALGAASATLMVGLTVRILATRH

MATE1 [2] = target: T1, MATE1; test: High throughput screen
MATE1 [3] = target: T1, MATE1; test: 14C-metformin uptake in HEK293 cells stably expressing MATE1
MATE1 [4] = target: T1, MATE1; assay type: cell-based
[5] = cited from earlier work
MATE1 [6] = target: T1, MATE1
human OCT2 = target: T2, human OCT2 (Homo sapiens, UniProt O15244); assay type: cell-based
T2 sequence (O15244 1-555): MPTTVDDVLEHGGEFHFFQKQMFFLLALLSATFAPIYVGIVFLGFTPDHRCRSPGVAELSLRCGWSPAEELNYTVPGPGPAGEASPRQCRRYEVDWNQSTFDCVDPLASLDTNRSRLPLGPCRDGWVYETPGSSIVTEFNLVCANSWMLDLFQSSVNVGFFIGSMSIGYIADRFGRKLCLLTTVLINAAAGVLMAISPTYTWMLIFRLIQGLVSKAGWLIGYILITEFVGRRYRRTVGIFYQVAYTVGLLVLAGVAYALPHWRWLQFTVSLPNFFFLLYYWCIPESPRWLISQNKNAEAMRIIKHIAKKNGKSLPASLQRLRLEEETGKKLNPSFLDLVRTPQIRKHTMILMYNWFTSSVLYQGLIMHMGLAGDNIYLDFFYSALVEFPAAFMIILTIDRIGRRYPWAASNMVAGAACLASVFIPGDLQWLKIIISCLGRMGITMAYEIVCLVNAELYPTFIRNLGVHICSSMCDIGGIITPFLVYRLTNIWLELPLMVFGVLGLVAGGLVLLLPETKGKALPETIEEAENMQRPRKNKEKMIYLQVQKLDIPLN

[7] = ref 53 (Micromedex); cited from earlier work
[8] = clinical plasma concentration, ref 54-58 (a-e)

Structure (SMILES): CN(C)c1ccc(/C=C/c2cc[n+](C)cc2)cc1 [ASP^+, 4-(4-(Dimethylamino)styryl)-N-methylpyridinium iodide]
- Km at […] (MATE1 [1]): 34 µM

Structure (SMILES): COc1ccccc1OCCNCC(O)COc1cccc2[nH]c3ccccc3c12 (stereo not drawn) [Carvedilol]
- did not inhibit MATE2-K up to (human MATE2-K): > 500 µM

Structure (SMILES): [H]/N=C(\N/C(=N/[H])NCCCCCCNC(=N)NC(=N)Nc1ccc(Cl)cc1)Nc1ccc(Cl)cc1 [Chlorhexidine]
- IC50 (MATE1 [2]): 3.1 µM

Structure (SMILES): CN1C[C@H](C(=O)N[C@]2(C)O[C@@]3(O)[C@@H]4CCCN4C(=O)[C@H](Cc4ccccc4)N3C2=O)C[C@@H]2c3cccc4[nH]cc(c34)C[C@H]21 [Dihydroergotamine]
- IC50 (MATE1 [2]): 8 µM

Structure (SMILES): NC1=NCC2c3ccccc3Cc3ccccc3N12 (stereo not drawn) [Epinastine]
- IC50 (MATE1 [2]): 0.6 µM

Structure (SMILES): C#C[C@]1(O)CC[C@H]2[C@@H]3CCc4cc(O)ccc4[C@H]3CC[C@@]21C [Ethinyl estradiol]
- IC50 (MATE1 [2]): 13.5 µM

Structure (SMILES): NC(N)=Nc1nc(CSCCC(N)=NS(N)(=O)=O)cs1 [Famotidine]
- IC50 (MATE1 [3]): 0.09 µM
- Cmax,unbound/ IC50 of MATE1, Metformin (MATE1 [3]; ratio, IC50 with 14C-metformin in HEK293-MATE1, threshold ≥ 0.1): 4.34
- Cmax,unbound/ IC50 of MATE1, ASP^+ (MATE1 [4]; ratio, IC50 with ASP+ in HEK293-MATE1, clinical relevance threshold ≥ 0.1): 0.51
- Cmax ([5]; in vivo): 460 nM
- IC50 (MATE1 [6]): 0.16 µM
- Cmax,unbound/ IC50 of MATE1, Metformin Polarized Cells (MATE1 [6]; ratio, IC50 with 14C-metformin in polarized MDCK-hMATE1, threshold ≥ 0.1): 2.44

Structure (SMILES): CCOC(=O)c1ccc(OC(=O)CCCCCNC(=N)N)cc1 [Gabaxate]
- IC50 (MATE1 [2]; read-out: prIC50, predicted IC50 estimated from screening inhibition at 20 μM): 0.8 µM

Structure (SMILES): CN1C2CCCC1CC(NC(=O)c1nn(C)c3ccccc13)C2 (stereo not drawn) [Granisetron]
- IC50 (MATE1 [2]): 9.9 µM

Structure (SMILES): CC(C)(C)NC(=O)[C@@H]1CN(Cc2cccnc2)CCN1C[C@@H](O)C[C@@H](Cc1ccccc1)C(=O)N[C@H]1c2ccccc2C[C@H]1O [Indinavir]
- Cmax [5, 8]: 9800 nM

Structure (SMILES): CCc1c2c(nc3ccc(OC(=O)N4CCC(N5CCCCC5)CC4)cc13)-c1cc3c(c(=O)n1C2)COC(=O)[C@]3(O)CC [Irinotecan]
- Cmax ([5]; in vivo): 4600 nM

Structure (SMILES): CO[C@@H]1[C@@H](O[C@@H]2O[C@H](C)[C@@H](O[C@H]3C[C@@](C)(O)[C@@H](OC(=O)CC(C)C)[C@H](C)O3)[C@H](N(C)C)[C@H]2O)[C@@H](CC=O)C[C@@H](C)[C@@H](O)/C=C/C=C/C[C@@H](C)OC(=O)C[C@H]1O [Leucomycin]
- IC50 (MATE1 [2]): 16 µM
- inhibition at 20 µM (MATE1 [2]; human, HEK cells stably overexpressing MATE1, pH 7.4, probe ASP+ (5 µM)): 56 ± 1%
- IC50 (human OCT2): 182 µM
- IC50 (MATE1 [4]): 11.1 µM
- IC50 (human MATE2-K): 125 µM

Structure (SMILES): O=C1c2c(O)ccc(O)c2C(=O)c2c(NCCNCCO)ccc(NCCNCCO)c21 [Mitoxantrone]
- Cmax ([5]; in vivo): 630 nM

Structure (SMILES): COc1ccc2c(c1OC)C(=O)O[C@@H]2[C@H]1c2c(cc3c(c2OC)OCO3)CCN1C [Noscapine]
- did not inhibit MATE2-K up to (human MATE2-K): > 500 µM

Structure (SMILES): Cc1nccn1CC1CCc2c(c3ccccc3n2C)C1=O (stereo not drawn) [Ondansetron]
- Cmax [5, 8]: 440 nM
- Protein Binding [% bound] [7]: 73 % bound

Structure (SMILES): COc1ccnc(C[S+]([O-])c2nc3ccc(OC(F)F)cc3[nH]2)c1OC (stereo not drawn) [Pantoprazole]
- Protein Binding [% bound] [7]: 98 % bound

Structure (SMILES): N=C(N)c1ccc(OCCCCCOc2ccc(C(=N)N)cc2)cc1 [Pentamidine]
- Cmax ([5]; in vivo): 730 nM

Structure (SMILES): CC[C@@]1(O)C(=O)OCc2c1cc1n(c2=O)Cc2cc3c(CN(C)C)c(O)ccc3nc2-1 [Topotecan]
- IC50 (MATE1 [2]): 19.7 µM

Structure (SMILES): COc1cc2c3cc1Oc1cc(ccc1O)C[C@@H]1c4c(cc(OC)c(O)c4Oc4ccc(cc4)C[C@@H]3N(C)CC2)CC[N+]1(C)C [Tubocurarine]
- IC50 (MATE1 [2]): 1.1 µM
- Cmax,unbound /IC50 (MATE1, text) (MATE1 [4]): 0.07
